Values quoted from earlier work, collected in paper PMC6361557 (Cancer Science, 2019).

Tested on: PSMA
Conditions: LNCaP cells

Row | IC50 [nM] | Compound
2 | 24.3 | ^68Ga‐PSMA‐11
